Tested on: MV-4-11 cells
Assay: Gene expression microarray analysis (Affymetrix PrimeView) and GSEA
Format: cell-based, human
Parameters: RFU PODN (11730768_x_at) / Fold change /veh PODN (11730768_x_at) / RFU LINC00158 (11744669_a_at) / Fold change /veh LINC00158 (11744669_a_at) / RFU DUSP10 (11751237_a_at) / Fold change /veh DUSP10 (11751237_a_at) / RFU ID3 (11757404_x_at) / Fold change /veh ID3 (11757404_x_at) / RFU PLEKHG5 (11737974_s_at) / Fold change /veh PLEKHG5 (11737974_s_at) / RFU LRRC4B (11730491_at) / Fold change /veh LRRC4B (11730491_at) / RFU GIMAP4 (11747438_a_at) / Fold change /veh GIMAP4 (11747438_a_at) / RFU KRT8 (11758183_x_at) / Fold change /veh KRT8 (11758183_x_at) / RFU CNN1 (11734310_a_at) / Fold change /veh CNN1 (11734310_a_at) / RFU VPS37D (11726825_at) / Fold change /veh VPS37D (11726825_at) / RFU C10orf10 (11716522_x_at) / Fold change /veh C10orf10 (11716522_x_at) / RFU KIR2DL2 /// KIR2DL4 /// KIR2DL5A /// KIR2DL5B /// KIR2DS1 /// KIR2DS2 /// KIR2DS3 /// KIR2DS4 /// KIR3DL3 /// KIR3DL3 /// KIR3DS1 (11738374_at) / Fold change /veh KIR2DL2 /// KIR2DL4 /// KIR2DL5A /// KIR2DL5B /// KIR2DS1 /// KIR2DS2 /// KIR2DS3 /// KIR2DS4 /// KIR3DL3 /// KIR3DL3 /// KIR3DS1 (11738374_at) / RFU C1QL1 (11718748_at) / Fold change /veh C1QL1 (11718748_at) / RFU TMPRSS4 (11747572_a_at) / Fold change /veh TMPRSS4 (11747572_a_at) / RFU HAMP (11756126_x_at) / Fold change /veh HAMP (11756126_x_at) / RFU RNFT2 (11725882_a_at) / Fold change /veh RNFT2 (11725882_a_at) / RFU NR4A2 (11747474_a_at) / Fold change /veh NR4A2 (11747474_a_at) / RFU ABCC12 (11746883_a_at) / Fold change /veh ABCC12 (11746883_a_at) / RFU TMEM136 (11760407_x_at) / Fold change /veh TMEM136 (11760407_x_at) / RFU CLDN22 /// WWC2 (11732394_at) / Fold change /veh CLDN22 /// WWC2 (11732394_at) / RFU HLA-DPB1 (11760878_x_at) / Fold change /veh HLA-DPB1 (11760878_x_at) / RFU SPINT1 (11716480_a_at) / Fold change /veh SPINT1 (11716480_a_at) / RFU GAP43 (11754022_s_at) / Fold change /veh GAP43 (11754022_s_at) / RFU A4GNT (11735810_at) / Fold change /veh A4GNT (11735810_at) / RFU PRB3 (11715151_x_at) / Fold change /veh PRB3 (11715151_x_at) / RFU TUBB4B (11761932_at) / Fold change /veh TUBB4B (11761932_at) / RFU CAPN14 (11732068_a_at) / Fold change /veh CAPN14 (11732068_a_at) / RFU TMCC2 (11721928_a_at) / Fold change /veh TMCC2 (11721928_a_at) / RFU IRGQ (11745062_a_at) / Fold change /veh IRGQ (11745062_a_at) / RFU FAM174B (11720279_a_at) / Fold change /veh FAM174B (11720279_a_at) / RFU TMPRSS4 (11748680_a_at) / Fold change /veh TMPRSS4 (11748680_a_at) / RFU FAM212B (11763350_a_at) / Fold change /veh FAM212B (11763350_a_at) / RFU PLEKHG5 (11743358_a_at) / Fold change /veh PLEKHG5 (11743358_a_at) / RFU ZSCAN30 (11745921_a_at) / Fold change /veh ZSCAN30 (11745921_a_at) / RFU CMKLR1 (11741424_a_at) / Fold change /veh CMKLR1 (11741424_a_at) / RFU LOC101060620 /// MAPK8IP1 (11723275_at) / Fold change /veh LOC101060620 /// MAPK8IP1 (11723275_at) / RFU SPTSSB (11747773_x_at) / Fold change /veh SPTSSB (11747773_x_at) / RFU PRSS12 (11739890_at) / Fold change /veh PRSS12 (11739890_at) / RFU BIN1 (11741810_x_at) / Fold change /veh BIN1 (11741810_x_at) / RFU WNT11 (11732464_a_at) / Fold change /veh WNT11 (11732464_a_at) / RFU C10orf10 (11716521_a_at) / Fold change /veh C10orf10 (11716521_a_at) / RFU C5orf56 (11738089_at) / Fold change /veh C5orf56 (11738089_at) / RFU CYB561 (11721691_x_at) / Fold change /veh CYB561 (11721691_x_at) / RFU ANKRD19P (11752326_a_at) / Fold change /veh ANKRD19P (11752326_a_at) / RFU OR2T12 /// OR2T33 /// OR2T8 (11738714_s_at) / Fold change /veh OR2T12 /// OR2T33 /// OR2T8 (11738714_s_at) / RFU VCAN (11748164_a_at) / Fold change /veh VCAN (11748164_a_at) / RFU JSRP1 (11732532_at) / Fold change /veh JSRP1 (11732532_at) / RFU KRTAP10-11 (11738290_x_at) / Fold change /veh KRTAP10-11 (11738290_x_at) / RFU MYO3A (11730013_a_at) / Fold change /veh MYO3A (11730013_a_at) / RFU EBF3 (11725865_a_at) / Fold change /veh EBF3 (11725865_a_at) / RFU CAMK2N1 (11719241_x_at) / Fold change /veh CAMK2N1 (11719241_x_at) / RFU C5orf56 (11738088_a_at) / Fold change /veh C5orf56 (11738088_a_at) / RFU OLFML3 (11715873_a_at) / Fold change /veh OLFML3 (11715873_a_at) / RFU LOC100653217 /// NTM (11731650_a_at) / Fold change /veh LOC100653217 /// NTM (11731650_a_at) / RFU MAPK11 (11762145_a_at) / Fold change /veh MAPK11 (11762145_a_at) / RFU FIZ1 (11724087_x_at) / Fold change /veh FIZ1 (11724087_x_at) / RFU OASL (11726364_x_at) / Fold change /veh OASL (11726364_x_at) / RFU SOX15 (11748057_x_at) / Fold change /veh SOX15 (11748057_x_at) / RFU CD79A (11719716_a_at) / Fold change /veh CD79A (11719716_a_at) / RFU HIST1H1D (11736915_at) / Fold change /veh HIST1H1D (11736915_at) / RFU CASKIN2 (11723855_a_at) / Fold change /veh CASKIN2 (11723855_a_at) / RFU LOC730098 (11760151_x_at) / Fold change /veh LOC730098 (11760151_x_at) / RFU OR4N2 (11742367_at) / Fold change /veh OR4N2 (11742367_at) / RFU PRRT2 (11749266_a_at) / Fold change /veh PRRT2 (11749266_a_at) / RFU SNX32 (11753110_a_at) / Fold change /veh SNX32 (11753110_a_at) / RFU CDHR5 (11726645_a_at) / Fold change /veh CDHR5 (11726645_a_at) / RFU RCAN1 (11760418_a_at) / Fold change /veh RCAN1 (11760418_a_at) / RFU FAM167A (11723789_a_at) / Fold change /veh FAM167A (11723789_a_at) / RFU FAM26E (11764081_at) / Fold change /veh FAM26E (11764081_at) / RFU ISYNA1 (11749810_s_at) / Fold change /veh ISYNA1 (11749810_s_at) / RFU ACY1 (11761880_at) / Fold change /veh ACY1 (11761880_at) / RFU 11764098_at / Fold change /veh 11764098_at / RFU SAMD14 (11745864_x_at) / Fold change /veh SAMD14 (11745864_x_at) / RFU NPB (11741838_a_at) / Fold change /veh NPB (11741838_a_at) / RFU TMPRSS6 (11731388_a_at) / Fold change /veh TMPRSS6 (11731388_a_at) / RFU KRTAP10-2 (11738614_at) / Fold change /veh KRTAP10-2 (11738614_at) / RFU ARHGAP8 /// PRR5-ARHGAP8 (11727945_x_at) / Fold change /veh ARHGAP8 /// PRR5-ARHGAP8 (11727945_x_at) / RFU KRTAP5-7 /// NADSYN1 (11734609_at) / Fold change /veh KRTAP5-7 /// NADSYN1 (11734609_at) / RFU RASL12 (11751679_a_at) / Fold change /veh RASL12 (11751679_a_at) / RFU CDKN2B (11736163_a_at) / Fold change /veh CDKN2B (11736163_a_at) / RFU PRF1 (11729649_at) / Fold change /veh PRF1 (11729649_at) / RFU, ZNF638 /// ZNF638-IT1 / Fold change vs veh, ZNF638 /// ZNF638-IT1 / RFU, PANK3 / Fold change vs veh, PANK3 / RFU, SH3YL1 / Fold change vs veh, SH3YL1 / RFU, ZEB2 / Fold change vs veh, ZEB2 / RFU, NRIP1 / Fold change vs veh, NRIP1 / RFU, PTTG1IP / Fold change vs veh, PTTG1IP / RFU, CAPN2 / Fold change vs veh, CAPN2 / RFU, MED14 / Fold change vs veh, MED14 / RFU, SNORA58 / Fold change vs veh, SNORA58 / RFU, C1orf63 / Fold change vs veh, C1orf63 / RFU, LRRFIP1 / Fold change vs veh, LRRFIP1 / RFU, NDUFAF7 / Fold change vs veh, NDUFAF7 / RFU, SLC12A2 / Fold change vs veh, SLC12A2 / RFU, IBTK / Fold change vs veh, IBTK / RFU, ESF1 / Fold change vs veh, ESF1 / Fold change vs veh, TMEM50B / RFU, TAOK1 / Fold change vs veh, TAOK1 / RFU, ACBD3 / Fold change vs veh, ACBD3 / RFU, TMA16 / Fold change vs veh, TMA16 / RFU, RWDD3 / Fold change vs veh, RWDD3 / RFU, BCAT1 / Fold change vs veh, BCAT1 / RFU, EDEM3 / Fold change vs veh, EDEM3 / RFU, TMEM33 / Fold change vs veh, TMEM33 / RFU, WDR75 / Fold change vs veh, WDR75 / RFU, AHCTF1 / Fold change vs veh, AHCTF1 / RFU, TFRC / Fold change vs veh, TFRC / RFU, ZDHHC17 / Fold change vs veh, ZDHHC17 / RFU, NOM1 / Fold change vs veh, NOM1 / RFU, ARL8B / Fold change vs veh, ARL8B / RFU, ZBTB11 / Fold change vs veh, ZBTB11 / RFU, TAMM41 / Fold change vs veh, TAMM41 / RFU, KIAA1704 /// LOC100996395 / Fold change vs veh, KIAA1704 /// LOC100996395 / RFU, ING1 / Fold change vs veh, ING1 / RFU, TRMT61B / Fold change vs veh, TRMT61B / RFU, FUBP3 / Fold change vs veh, FUBP3 / RFU, TP53 / Fold change vs veh, TP53 / RFU, TNKS2 / Fold change vs veh, TNKS2 / RFU, ZFP14 / Fold change vs veh, ZFP14 / RFU, ACTR2 / Fold change vs veh, ACTR2 / RFU, PPP3R1 / Fold change vs veh, PPP3R1 / RFU, PIK3R1 / Fold change vs veh, PIK3R1 / RFU, HNRNPA1 / Fold change vs veh, HNRNPA1 / RFU, RNF170 / Fold change vs veh, RNF170 / RFU, ZNF28 / Fold change vs veh, ZNF28 / RFU, RNGTT / Fold change vs veh, RNGTT / RFU, OGT / Fold change vs veh, OGT / RFU, BRD1 / Fold change vs veh, BRD1 / RFU, MARS / Fold change vs veh, MARS / RFU, ZNF655 / Fold change vs veh, ZNF655 / RFU, FAHD1 / Fold change vs veh, FAHD1 / RFU, BDP1 / Fold change vs veh, BDP1 / RFU, LRRCC1 / Fold change vs veh, LRRCC1 / RFU, ARID1A / Fold change vs veh, ARID1A / RFU, ZNF146 / Fold change vs veh, ZNF146 / RFU, ZNF330 / Fold change vs veh, ZNF330 / RFU, GPN3 / Fold change vs veh, GPN3 / RFU, C9orf123 / Fold change vs veh, C9orf123 / RFU, N4BP2L2 / Fold change vs veh, N4BP2L2 / RFU, ARFIP1 / Fold change vs veh, ARFIP1 / RFU, FAM179B / Fold change vs veh, FAM179B / RFU, BCL10 / Fold change vs veh, BCL10 / RFU, UHRF1BP1L / Fold change vs veh, UHRF1BP1L / RFU, BET1 / Fold change vs veh, BET1 / RFU, CNOT2 / Fold change vs veh, CNOT2 / RFU, ZNF268 / Fold change vs veh, ZNF268 / Fold change vs veh, ZNF507 / RFU, DGCR2 / Fold change vs veh, DGCR2 / RFU, WDSUB1 / Fold change vs veh, WDSUB1 / Fold change vs veh, HSP90B1 /// MIR3652 / RFU, ADSS / Fold change vs veh, ADSS / RFU, GK / Fold change vs veh, GK / RFU, ZNF148 / Fold change vs veh, ZNF148 / RFU, TAF9 / Fold change vs veh, TAF9 / RFU, SLC1A5 / Fold change vs veh, SLC1A5 / RFU, SLMO2 / Fold change vs veh, SLMO2 / RFU, ABCC4 / Fold change vs veh, ABCC4 / RFU, LOC101060439 /// RAP1B / Fold change vs veh, LOC101060439 /// RAP1B / RFU, RFX7 / Fold change vs veh, RFX7 / RFU, GTPBP10 / Fold change vs veh, GTPBP10 / RFU, CNEP1R1 / Fold change vs veh, CNEP1R1 / RFU, BIVM-ERCC5 /// ERCC5 / Fold change vs veh, BIVM-ERCC5 /// ERCC5 / RFU, ILF3 / Fold change vs veh, ILF3 / RFU 11762660_at / Fold change /veh 11762660_at / RFU VCAN (11757783_s_at) / Fold change /veh VCAN (11757783_s_at) / RFU DDX43 (11728927_at) / Fold change /veh DDX43 (11728927_at) / RFU KRT8 (11758188_x_at) / Fold change /veh KRT8 (11758188_x_at) / RFU NKD1 (11759106_at) / Fold change /veh NKD1 (11759106_at) / RFU SRD5A1 (11742802_a_at) / Fold change /veh SRD5A1 (11742802_a_at) / RFU TPSAB1 /// TPSB2 (11721975_s_at) / Fold change /veh TPSAB1 /// TPSB2 (11721975_s_at) / RFU GSTM3 (11746129_a_at) / Fold change /veh GSTM3 (11746129_a_at) / RFU IL23R (11737362_x_at) / Fold change /veh IL23R (11737362_x_at) / RFU TMEM51 (11727254_a_at) / Fold change /veh TMEM51 (11727254_a_at) / RFU PIWIL2 (11732686_x_at) / Fold change /veh PIWIL2 (11732686_x_at) / RFU ORM1 (11744905_x_at) / Fold change /veh ORM1 (11744905_x_at) / RFU CCDC152 (11743942_at) / Fold change /veh CCDC152 (11743942_at) / RFU ECM1 (11717891_a_at) / Fold change /veh ECM1 (11717891_a_at) / RFU IL23R (11748794_a_at) / Fold change /veh IL23R (11748794_a_at) / RFU TNFAIP8L3 (11732012_x_at) / Fold change /veh TNFAIP8L3 (11732012_x_at) / RFU MBOAT4 (11741988_at) / Fold change /veh MBOAT4 (11741988_at) / RFU 11764193_at / Fold change /veh 11764193_at / RFU TMEM53 (11763286_at) / Fold change /veh TMEM53 (11763286_at) / RFU MAGEB2 (11727129_at) / Fold change /veh MAGEB2 (11727129_at) / RFU TMEM200A (11744735_a_at) / Fold change /veh TMEM200A (11744735_a_at) / RFU CCDC152 (11751479_a_at) / Fold change /veh CCDC152 (11751479_a_at) / RFU FAM211A (11726209_a_at) / Fold change /veh FAM211A (11726209_a_at) / RFU RGS16 (11746705_a_at) / Fold change /veh RGS16 (11746705_a_at) / RFU VCAN (11755009_s_at) / Fold change /veh VCAN (11755009_s_at) / RFU RHOB (11743442_s_at) / Fold change /veh RHOB (11743442_s_at) / RFU RGS16 (11720943_a_at) / Fold change /veh RGS16 (11720943_a_at) / RFU RGS16 (11720944_at) / Fold change /veh RGS16 (11720944_at) / RFU, VPS4B / Fold change vs veh, VPS4B / RFU, CREB1 / Fold change vs veh, CREB1 / RFU, DNAJC13 / Fold change vs veh, DNAJC13 / RFU, GNAQ / Fold change vs veh, GNAQ / RFU, CDK5R1 / Fold change vs veh, CDK5R1 / RFU, ZRANB3 / Fold change vs veh, ZRANB3 / RFU, CUL4A / Fold change vs veh, CUL4A / RFU, CCNY / Fold change vs veh, CCNY / RFU, UFL1 / Fold change vs veh, UFL1 / RFU, COG3 / Fold change vs veh, COG3 / RFU, DIAPH2 / Fold change vs veh, DIAPH2 / RFU, SKA2 / Fold change vs veh, SKA2 / RFU, AFF3 / Fold change vs veh, AFF3 / RFU, LMF1 / Fold change vs veh, LMF1 / RFU, IPO11 / Fold change vs veh, IPO11 / RFU, DFFB / Fold change vs veh, DFFB / RFU, FOXP1 / Fold change vs veh, FOXP1 / RFU, CARD8 / Fold change vs veh, CARD8 / RFU, STRN3 / Fold change vs veh, STRN3 / RFU, ADK / Fold change vs veh, ADK / RFU, RASSF2 / Fold change vs veh, RASSF2 / RFU, WIPF1 / Fold change vs veh, WIPF1 / RFU, LARP1B / Fold change vs veh, LARP1B / RFU, RASA1 / Fold change vs veh, RASA1 / RFU, RB1 / Fold change vs veh, RB1 / RFU, PPFIA1 / Fold change vs veh, PPFIA1 / RFU, MAT2A / Fold change vs veh, MAT2A / RFU, CCT5 / Fold change vs veh, CCT5 / RFU, WDR92 / Fold change vs veh, WDR92 / RFU, CUX1 / Fold change vs veh, CUX1 / RFU, TTC7A / Fold change vs veh, TTC7A / RFU, TMEM135 / Fold change vs veh, TMEM135 / RFU, DEPTOR / Fold change vs veh, DEPTOR / RFU, CPM / Fold change vs veh, CPM / RFU, DNAJB6 / Fold change vs veh, DNAJB6 / RFU, CACNA2D3 / Fold change vs veh, CACNA2D3 / RFU, DTX4 / Fold change vs veh, DTX4 / RFU, TFCP2 / Fold change vs veh, TFCP2 / RFU, GMCL1 /// GMCL1P1 / Fold change vs veh, GMCL1 /// GMCL1P1 / RFU, AEBP2 / Fold change vs veh, AEBP2 / RFU, SNHG1 /// SNORD22 /// SNORD25 /// SNORD26 /// SNORD27 /// SNORD28 /// SNORD29 /// SNORD31 / Fold change vs veh, SNHG1 /// SNORD22 /// SNORD25 /// SNORD26 /// SNORD27 /// SNORD28 /// SNORD29 /// SNORD31 / Fold change (Aza/veh), C12orf56 (ProbeSet 11735607_a_at) / Fold change (ACY-1035/veh), C12orf56 (ProbeSet 11735607_a_at) / Fold change (Aza/veh), FGFR1OP (ProbeSet 11751329_s_at) / Fold change (ACY-1035/veh), FGFR1OP (ProbeSet 11751329_s_at) / Fold change (Aza/veh), VPS36 (ProbeSet 11739960_a_at) / Fold change (ACY-1035/veh), VPS36 (ProbeSet 11739960_a_at) / RFU SYPL1 (11715823_x_at) / Fold change /veh SYPL1 (11715823_x_at) / RFU IGFBP7 (11715501_s_at) / Fold change /veh IGFBP7 (11715501_s_at) / RFU REEP3 (11722064_at) / Fold change /veh REEP3 (11722064_at) / RFU IGLL1 (11728026_x_at) / Fold change /veh IGLL1 (11728026_x_at): dose or concentration left out as unconfirmed
Conditions: ProbeSet 11725217_a_at; LIST B

SMILES: Nc1ccc(-c2cccs2)cc1NC(=O)c1ccc2c(c1)cc(C1CC1)n2CCN1CCOCC1 [ACY-1035]
- Fold change vs veh, WDSUB1: 1.02

From article PMC5218480 (PLoS ONE, 2017)
